Reference: US20120329872A1, “Ready-To-Eat Feed For Domestic Pets” (Alzchem Trostberg GmbH, priority 2006, published 2012)

Tests used:
[1] = Stability in water (pH 7) heated in an autoclave to 160° C. for 30 minutes (model of feed extrusion); type: physicochemical
Method: For this purpose a model system was used for the extrusion of a moist feed paste at 160° C. […] Subsequently the content of creatine and guanidinoacetic acid was determined.

[2] = Storage stability in water at pH 5 over 60 days (comparable to canned feeds); type: physicochemical
[3] = dogs, oral, about 40 mg/kg daily for several weeks; cited from earlier work
Staphylococcus aureus = conditions: bacterial infections (Staphylococcus aureus); cited from earlier work
[4] = 200 patients, 30 mg GAA/kg daily for one year, in combination with betaine; cited from earlier work

| SMILES | content remaining, of the original content ([1]; water pH 7, 30 minutes at 160° C., autoclave) | content recovered after storage ([2]; water pH 5, after 60 days) [%] | body weight change [3] | nitrogen balance [3] | content remaining, of the original content ([1]; 0.5 h, pH 7) | antibacterial action in animal experiments (Staphylococcus aureus) | degradation after storage ([2]; water pH 5, after 60 days) | storage stability compared with creatine (FIG. 2) ([2]; water pH 5, over 60 days) | side effects [4] |
| --- | --- | --- | --- | --- | --- | --- | --- | --- | --- |
| CN(CC(=O)O)C(=N)N [creatine, reference compound] | less than 20% | 87 | considerable increase in weight | positive nitrogen balance |  |  |  |  |  |
| N=C(N)NCC(=O)O [guanidinoacetic acid] |  |  |  |  | more than 80% | successfully used against bacterial infections | no degradation | significantly higher storage stability than creatine | not observed |
